# Reference: patent publication US8993552B2, “Compositions and methods for treatment of leukemia” (The Regents of The University of Michigan, priority 2009, dated 2015)
# Assays:
# menin-MLL interaction [1] = target: T1, menin-MLL interaction (Homo sapiens (Human), UniProt O00255); assay: Fluorescence polarization (FP) competition assay with fluorescein-labeled MLL peptide; format: binding;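 note: Read-out is fluorescence anisotropy of fluorescein-labeled MLL peptide bound to menin, inhibitors displace the peptide and lower anisotropy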
# T1 sequence (O00255 whole entry): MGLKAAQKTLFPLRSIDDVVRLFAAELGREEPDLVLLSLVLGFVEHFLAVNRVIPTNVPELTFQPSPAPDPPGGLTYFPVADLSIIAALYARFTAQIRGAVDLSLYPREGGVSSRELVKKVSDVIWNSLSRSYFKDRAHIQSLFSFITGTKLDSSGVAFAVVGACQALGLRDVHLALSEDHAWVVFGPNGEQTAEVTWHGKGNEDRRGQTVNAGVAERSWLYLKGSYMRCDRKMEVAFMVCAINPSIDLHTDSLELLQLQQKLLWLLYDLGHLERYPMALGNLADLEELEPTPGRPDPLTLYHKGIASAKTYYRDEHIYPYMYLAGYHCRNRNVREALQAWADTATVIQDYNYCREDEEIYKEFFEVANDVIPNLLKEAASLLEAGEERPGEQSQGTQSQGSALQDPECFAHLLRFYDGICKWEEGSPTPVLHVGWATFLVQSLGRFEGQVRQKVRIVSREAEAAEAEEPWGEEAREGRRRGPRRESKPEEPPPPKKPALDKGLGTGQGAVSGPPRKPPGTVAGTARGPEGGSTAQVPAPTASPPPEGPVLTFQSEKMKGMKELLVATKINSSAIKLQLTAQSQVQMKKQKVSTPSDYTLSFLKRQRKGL
# [2] = tested on: human leukemia cell lines with MLL translocations (MV4;11, KOPN-8, THP-1, MonoMac6); assay: MTT viability assay in MLL leukemia cell lines; format: cell-based; conditions: in words
# [3] = tested on: non-MLL leukemia cell lines (Kasumi-1, ME-1); assay: MTT viability assay in non-MLL leukemia cell lines; format: cell-based, human; conditions: Kasumi-1 (AML1-ETO), ME-1 (CBFβ-SMMHC)
# [4] = tested on: Hoxa9 and Meis1 expression; assay: qRT-PCR of MLL downstream targets in THP-1 cells
# menin-MLL interaction [5] = target: T1, menin-MLL interaction; assay: HTRF (TR-FRET) assay, His-tagged menin and biotinylated MLL peptide; format: binding
# menin = menin (Homo sapiens (Human), UniProt O00255); assay: NMR STD / competition STD binding experiments; conditions: 2.5 μM menin
# menin, sequence (O00255 whole entry): as above
# Hep-G2 (liver) cell line = assay: MTT viability assay, liver cell line
# HK-2 (kidney) cell line = assay: MTT viability assay, kidney cell line
# [6] = FP competition, read-out: IC50 for inhibition of the menin-MLL interaction
# [7] = Table 3, NA = no activity, read-out: IC50 in FP assay with FLSN-MLL
# [8] = Table 1, NA = no activity, NS = no saturation on titration curve
# [9] = Table 4, NA = no activity, NS not defined in this table, read-out: IC50 in FP assay with FLSN-MLL
# [10] = Table 2, FP assay, read-out: IC50
# [11] = Table 1, NA = no activity, NS = no saturation on titration curve, read-out: IC50 in FP assay with FLSN-MLL
smiles,measurement,setting,value
CC(=O)N1c2ccccc2NC2=C(C(=O)CC(c3ccc(Cl)c(Cl)c3)C2)C1c1cccnc1 (stereo not drawn) [Compound 86],IC50,menin-MLL interaction [1]; [6],7.4 µM
same,IC50,menin-MLL interaction [1]; [7],7.4 µM
same,growth inhibition of MLL leukemia cells,[2],strongly inhibited growth
same,effect on growth of non-MLL leukemia cell lines,[3],no or very limited effect on cell growth
same,expression level of Hoxa9 and Meis1,[4],Downregulation of Hoxa9 and Meis1 expression
CCN(CC)Cc1nc(N2CCN(c3nccs3)CC2)c2c(C)c(C)sc2n1 [Compound 17],IC50 in FP assay with FLSN-MLL,menin-MLL interaction [1]; [8],NA up to 250 uM
Cc1ccc(-c2csc(CC(N)=O)n2)cc1C [Compound 56],D in FP assay,"menin-MLL interaction [1]; Table 4, at 0.5 mM",30%
O=C(Cc1nc(-c2ccccc2)cs1)Nc1ccccc1 [Compound 48],D in FP assay,"menin-MLL interaction [1]; Table 4, at 0.5 mM",30%
NC(=O)Cc1nc(-c2ccccc2)cs1 [Compound 46],IC50,menin-MLL interaction [1]; [9],2000 µM
c1ccc(CN2CCC(Nc3ncnc4sc5c(c34)CCC5)CC2)cc1 [Compound 78],IC50,menin-MLL interaction [1]; [10],12 µM
CCc1cc2c(N3CCCN(C4=NCC(C)(C)S4)CC3)ncnc2s1 [Compound 76],IC50,menin-MLL interaction [1]; [10],6.3 µM
CCc1cc2c(N3CCN(C(=O)c4ccccc4)CC3)ncnc2s1 [Compound 62],IC50,menin-MLL interaction [1]; [10],10 µM
CC1CCc2c(sc3ncnc(NC4CCN(Cc5ccccc5)CC4)c23)C1 (stereo not drawn) [Compound 79],IC50,menin-MLL interaction [1]; [10],20 µM
CCc1cc2c(N3CCN(c4ncccn4)CC3)ncnc2s1 [Compound 10],IC50,menin-MLL interaction [1]; [11],250 µM
COc1ccc(-c2csc(CC(N)=O)n2)cc1Br [Compound 58],IC50,menin-MLL interaction [1]; [9],80 µM
CC(=O)N1c2ccccc2NC2=C(C(=O)CC(c3ccc(C(C)(C)C)cc3)C2)C1c1ccncc1 (stereo not drawn) [Compound 33],IC50,menin-MLL interaction [1]; [7],29 µM
same,IC50,menin-MLL interaction [5]; Table 3,28 µM
same,"binding to menin by NMR (STD, competition STD with MLL peptide)",menin,specific binding
same,toxicity in viability assay,Hep-G2 (liver) cell line,no substantial signs of toxicity
same,toxicity in viability assay,HK-2 (kidney) cell line,no substantial signs of toxicity
Cc1csc(N2CCN(c3nc(CN4CCOCC4)nc4sc5c(c34)CCC(C)C5)CC2)n1 (stereo not drawn) [Compound 14],IC50,menin-MLL interaction [1]; [11],250 µM
c1cnc(N2CCN(c3ncnc4sccc34)CC2)nc1 [Compound 24],IC50 in FP assay with FLSN-MLL,menin-MLL interaction [1]; [8],NA up to 1 mM
c1cn(CCCNc2ncnc3sc4c(c23)CCCCC4)cn1 [Compound 3],IC50,menin-MLL interaction [1]; [11],83 µM
same,IC50,menin-MLL interaction [5]; Table 1,35 µM
CCc1cc2c(NCC3CCN(Cc4ccc(F)cc4)CC3)ncnc2s1 [Compound 82],IC50,menin-MLL interaction [1]; [10],4.4 µM
COC(=O)Cc1nc(C2CCCCC2)cs1 [Compound 51],IC50,menin-MLL interaction [1]; [9],1900 µM
NC(=O)Cc1nc(-c2ccc(F)cc2)cs1 [Compound 43],IC50,menin-MLL interaction [1]; [9],230 µM
same,IC50,menin-MLL interaction [5]; Table 4,200 µM
same,"binding to menin by NMR (STD, competition STD with MLL peptide)",menin,Binding to menin was confirmed
NC(=O)Cc1nc(-c2cccc(Cl)c2)cs1 [Compound 54],IC50,menin-MLL interaction [1]; [9],137 µM
COc1cc(C2Nc3ccccc3NC3=C2C(=O)CC(C)(C)C3)cc(OC)c1OC (stereo not drawn) [Compound 35],IC50,menin-MLL interaction [1]; [7],35 µM
CCCC(=O)Nc1ccc(-c2nc(CC(N)=O)sc2C)cc1 [Compound 59],IC50,menin-MLL interaction [1]; [9],830 µM
CCc1cc2c(NC3CCN(Cc4ccccc4)CC3)ncnc2s1 [Compound 80],IC50,menin-MLL interaction [1]; [10],1.3 µM
COc1ccc(-c2csc(CC(N)=O)n2)cc1 [Compound 47],IC50,menin-MLL interaction [1]; [9],67 µM
same,potency relative to the original hit (6G10),menin-MLL interaction [1]; inhibition of the menin-MLL interaction,about 4 fold
same,IC50,menin-MLL interaction [5]; Table 4,33 µM
CCc1cc2c(N3CCN(Cc4ccc(Cl)cc4)CC3)ncnc2s1 [Compound 60],IC50,menin-MLL interaction [1]; [10],30 µM
CN1CCN(c2ncnc3oc(-c4ccccc4)c(-c4ccccc4)c23)CC1 [Compound 11],IC50,menin-MLL interaction [1]; [11],500 µM
O=C1CC(c2ccc3c(c2)OCO3)CC2=C1C(c1cccnc1)Nc1ccccc1N2 (stereo not drawn) [Compound 36],IC50,menin-MLL interaction [1]; [7],63 µM
O=C(Cc1nc(-c2ccc(Cl)cc2)cs1)NCc1ccccc1 [Compound 53],IC50,menin-MLL interaction [1]; [9],1060 µM
CCc1cc2c(N3CCCN(CC(=O)N4CCCC4)CC3)ncnc2s1 [Compound 74],IC50,menin-MLL interaction [1]; [10],7 µM
CC1(C)CN=C(N2CCN(c3ncnc4sc(Br)cc34)CC2)S1 [Compound 72],IC50,menin-MLL interaction [1]; [10],4.8 µM
CCc1cc2c(N3CCN(C)CC3)ncnc2s1 [Compound 7],IC50,menin-MLL interaction [1],170 µM
COc1ccc(CN2CCCN(c3ncnc4sc(C)c(C)c34)CC2)cc1 [Compound 73],IC50,menin-MLL interaction [1]; [10],20 µM
CCc1cc2c(N3CCN(Cc4ccccc4)CC3)ncnc2s1 [Compound 2],IC50,menin-MLL interaction [1]; [11],42 µM
same,IC50,menin-MLL interaction [5]; Table 1,85 µM
Cc1cc2c(N3CCN(c4ccccc4)CC3)ncnc2s1 [Compound 29],IC50 in FP assay with FLSN-MLL,menin-MLL interaction [1]; [8],NA up to 250 μM
O=C(Cc1nc(-c2ccc(F)cc2)cs1)N1CCOCC1 [Compound 52],IC50,menin-MLL interaction [1]; [9],107 µM
NC(=O)Cc1nc(-c2ccc(Br)cc2)cs1 [Compound 49],D in FP assay,"menin-MLL interaction [1]; Table 4, at 1.0 mM",10%
CCc1cc2c(NCC3CCN(Cc4cccc(C)c4)CC3)ncnc2s1 [Compound 81],IC50,menin-MLL interaction [1]; [10],40 µM
Cc1sc2ncnc(NC3CCN(Cc4ccccc4)CC3)c2c1C [Compound 77],IC50,menin-MLL interaction [1]; [10],8.7 µM
CC(C)c1cc2c(N3CCCN(C4=NCC(C)(C)S4)CC3)ncnc2s1 [Compound 75],IC50,menin-MLL interaction [1]; [10],32 µM
Fc1ccc(-c2csc3ncnc(N4CCN(c5nccs5)CC4)c23)cc1 [Compound 20],IC50,menin-MLL interaction [1]; [11],125 µM
CC(=O)N1c2ccccc2NC2=C(C(=O)CC(c3ccc(C)cc3)C2)C1c1cccnc1 (stereo not drawn) [Compound 84],IC50,menin-MLL interaction [1]; [7],100 µM
c1csc(N2CCN(c3ncnc4sccc34)CC2)n1 [Compound 31],IC50,menin-MLL interaction [1]; [11],29.5 µM
Cc1c(-c2ccccc2)sc2ncnc(N3CCN(c4nccs4)CC3)c12 [Compound 16],IC50,menin-MLL interaction [1]; [11],71 µM
CCOC(=O)c1sc2nc(CN3CCOCC3)nc(N3CCN(c4nccs4)CC3)c2c1C [Compound 12],IC50 in FP assay with FLSN-MLL,menin-MLL interaction [1]; [8],NA up to 100 μM
CCc1cc2c(N3CCN(CC(=O)N4CCOCC4)CC3)ncnc2s1 [Compound 61],IC50,menin-MLL interaction [1]; [10],20 µM
CC(C)c1cc2c(N3CCN(c4nnc(C(F)(F)F)s4)CC3)ncnc2s1 [Compound 68],IC50,menin-MLL interaction [1]; [10],2.4 µM
Cc1cc(C)c(-c2csc(CC(N)=O)n2)cc1C [Compound 57],IC50,menin-MLL interaction [1]; [9],1200 µM
COc1ccc(C2CC(=O)C3=C(C2)Nc2ccccc2NC3c2cccnc2)cc1OC (stereo not drawn) [Compound 37],IC50,menin-MLL interaction [1]; [7],100 µM
CCc1cc2c(NCCN(CC)Cc3ccccc3)ncnc2s1 [Compound 83],IC50,menin-MLL interaction [1]; [10],27 µM
CC1(C)CN=C(N2CCN(c3ncnc4sc(Cc5ccccc5)cc34)CC2)S1 [Compound 71],IC50,menin-MLL interaction [1]; [10],4.6 µM
Cc1nn(-c2ccccc2)nc1C(N)=O [Compound 44],IC50,menin-MLL interaction [1]; [9],380 µM
same,"binding to menin by NMR (STD, competition STD with MLL peptide)",menin,Binding to menin was confirmed
Cc1ccccc1NC(=O)Cc1nc(-c2ccc(F)cc2)cs1 [Compound 50],IC50,menin-MLL interaction [1]; [9],122 µM
CCc1cc2c(N3CCN(CC(=O)N4CCN(C)CC4)CC3)ncnc2s1 [Compound 69],IC50,menin-MLL interaction [1]; [10],16 µM
CN1CCCN(c2ncnc3sccc23)CC1 [Compound 27],IC50,menin-MLL interaction [1]; [11],350 µM
COc1ccc(C2CC(=O)C3=C(C2)Nc2ccccc2N(C(C)=O)C3c2cccnc2)cc1 (stereo not drawn) [Compound 85],IC50,menin-MLL interaction [1]; [7],72 µM
CCc1cc2c(N3CCN(c4nnc(C(F)(F)F)s4)CC3)ncnc2s1.Cl [Compound 66],IC50,menin-MLL interaction [1]; [10],1.1 µM
same,in vitro activity in FP assay relative to parent Compound 1,menin-MLL interaction [1]; in words,more potent activity
OCc1ccc(-c2ccncc2)cc1 [Compound 45],IC50,menin-MLL interaction [1]; [9],510 µM
same,"binding to menin by NMR (STD, competition STD with MLL peptide)",menin,Binding to menin was confirmed
COc1ccc(C2CC(=O)C3=C(C2)Nc2ccccc2NC3c2ccccc2C)cc1OC (stereo not drawn) [Compound 38],IC50,menin-MLL interaction [1]; [7],115 µM
CCc1cc2c(N3CCN(C(=O)c4ccco4)CC3)ncnc2s1 [Compound 63],IC50,menin-MLL interaction [1]; [10],12 µM
same,effect on growth of non-MLL leukemia cell lines,[3],No or very limited effect
same,expression level of Hoxa9 and Meis1,[4],Downregulation
c1ccc(-c2cc3c(N4CCN(c5nccs5)CC4)ncnc3s2)cc1 [Compound 21],IC50,menin-MLL interaction [1]; [11],50 µM
CCc1cc2c(N3CCN(c4ccccn4)CC3)ncnc2s1 [Compound 8],IC50,menin-MLL interaction [1]; [11],60 µM
CC1(C)CC(=O)C2=C(C1)Nc1ccccc1NC2c1ccc2c(c1)OCO2 (stereo not drawn) [Compound 34],IC50,menin-MLL interaction [1]; [7],12 µM
Cc1csc(N2CCN(c3nc(C)nc4sc5c(c34)CCCC5)CC2)n1 [Compound 15],IC50,menin-MLL interaction [1]; [11],49 µM
Nc1cccc(-c2cccnc2)c1 [Compound 42],IC50,menin-MLL interaction [1]; [6],50 µM
same,IC50,menin-MLL interaction [1]; [9],50 µM
same,"binding to menin by NMR (STD, competition STD with MLL peptide)",menin,Binding to menin was confirmed
